US5859012A, “Inhibitors of farnesyl-protein transferase” (Merck & Co., Inc., priority 1997, dated 1999)
Where a name gives a salt, the structure may show the parent alone.

Biological target: T1, human FPTase (Homo sapiens, UniProt P49354+P49356)
T1 construct: made in house
Assay: In vitro inhibition of ras farnesyl transferase (human FPTase assay, [3H]-FPP incorporation into Ras-CVIM)
Format: biochemical
Settings: 100 nM Ras-CVIM, 30 min, read-out: IC50, inhibitory activity against human FPTase

Row | SMILES | IC50 [µM]
1 | N#Cc1ccc(Cn2cncc2CN2CCN(c3cccc(Cl)c3)C(=O)C2=O)cc1 [Example 1, 4-[1-(4-Cyanobenzyl)-5-imidazolylmethyl]-1-(3-chlorophenyl)-piperazine-2,3-dione hydrochloride] | ≤ 10
2 | CCCC[C@H]1CN(c2cccc(C)c2C)C(=O)C(=O)N1Cc1cncn1Cc1ccc(C#N)cc1 [Example 2, (S)-5-n-butyl-4-[1-(4-cyanobenzyl)-5-imidazolylmethyl]-1-(2,3-dimethylphenyl)-2,3-piperazinedione hydrochloride] | ≤ 10
